In patent US20240299385A1 (ReWind Therapeutics NV, priority 2021, published 2024):

Molecular target: T1, human GPR17 receptor (Homo sapiens, UniProt Q13304)
T1 construct: host or cells: HEK-293
Assay: Calcium mobilization functional assay (Fluo-8, FLIPR TETRA) in HEK-293 hGPR17 (Gα-q assay)
Format: cell-based
Conditions: antagonism of MDL29,951 (~EC80) induced Ca2+ signal; cell line (HEK-293 hGPR17 or HEK-293 Suchi5 hGPR17) not given
In short: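 Fluo-8-loaded HEK-293 hGPR17 cells (60 min dye loading, room temperature) were preincubated with compound for twenty minutes, then challenged with agonist MDL29,951 at ~EC80, 500 nM. Intracellular calcium release via Gα-q was recorded as FLIPR fluorescence for a further 2 minutes; compounds tested in duplicate.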

T1 sequence (Q13304 whole entry): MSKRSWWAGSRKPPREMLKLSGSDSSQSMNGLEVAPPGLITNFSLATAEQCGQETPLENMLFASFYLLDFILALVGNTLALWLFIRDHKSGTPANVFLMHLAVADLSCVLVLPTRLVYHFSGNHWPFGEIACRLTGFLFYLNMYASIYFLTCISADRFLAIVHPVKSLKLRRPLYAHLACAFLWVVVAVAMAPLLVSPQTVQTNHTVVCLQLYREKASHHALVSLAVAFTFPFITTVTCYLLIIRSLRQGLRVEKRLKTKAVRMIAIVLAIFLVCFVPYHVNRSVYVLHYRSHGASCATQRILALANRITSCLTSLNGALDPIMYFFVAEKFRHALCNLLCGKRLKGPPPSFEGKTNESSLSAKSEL

| IC50 | SMILES |
| --- | --- |
| 500 to 5000 nM | O=S(=O)(Nc1cc(F)c(Br)cc1F)c1c[nH]cc1Cc1cccs1 [Cpd 417, N-(4-bromo-2,5-difluorophenyl)-4-(thiophen-2-ylmethyl)-1H-pyrrole-3-sulfonamide] |
| < 500 nM | O=S(=O)(Nc1cc(F)c(C(F)(F)F)cc1F)c1c[nH]cc1Cc1cccs1 [Cpd 418, N-[2,5-difluoro-4-(trifluoromethyl)phenyl]-4-(thiophen-2-ylmethyl)-1H-pyrrole-3-sulfonamide] |
| 500 to 5000 nM | O=S(=O)(Nc1cc(OC(F)F)c(Cl)cc1F)c1c[nH]c(-c2ccccn2)c1 [Cpd 419, N-[4-chloro-5-(difluoromethoxy)-2-fluorophenyl]-5-pyridin-2-yl-1H-pyrrole-3-sulfonamide] |
| < 500 nM | Cc1ccc(-c2c[nH]cc2S(=O)(=O)Nc2ccc(C#N)cc2F)s1 [Cpd 420, N-(4-cyano-2-fluorophenyl)-4-(5-methylthiophen-2-yl)-1H-pyrrole-3-sulfonamide] |
| 500 to 5000 nM | N#Cc1ccc(NS(=O)(=O)c2c[nH]c(C3CCCCC3)c2)c(F)c1 [Cpd 421, N-(4-cyano-2-fluorophenyl)-5-cyclohexyl-1H-pyrrole-3-sulfonamide] |
| < 500 nM | COc1nc(Cl)c(F)cc1NS(=O)(=O)c1c[nH]c(-c2ccccc2)c1 [Cpd 422, N-(6-chloro-5-fluoro-2-methoxypyridin-3-yl)-5-phenyl-1H-pyrrole-3-sulfonamide] |
| 500 to 5000 nM | O=S(=O)(Nc1cc(F)c(C(F)(F)F)cc1F)c1c[nH]c(C2CCCCC2)c1 [Cpd 423, 5-cyclohexyl-N-[2,5-difluoro-4-(trifluoromethyl)phenyl]-1H-pyrrole-3-sulfonamide] |
| 500 to 5000 nM | O=S(=O)(Nc1cc(F)c(C(F)(F)F)cc1F)c1c[nH]c(C2CCOC2)c1 (centres unmarked) [Cpd 424, N-[2,5-difluoro-4-(trifluoromethyl)phenyl]-5-(oxolan-3-yl)-1H-pyrrole-3-sulfonamide] |
| 500 to 5000 nM | O=S(=O)(Nc1cc(OC(F)F)c(Cl)cc1F)c1c[nH]cc1-c1cccc(F)c1 [Cpd 425, N-[4-chloro-5-(difluoromethoxy)-2-fluorophenyl]-4-(3-fluorophenyl)-1H-pyrrole-3-sulfonamide] |
| 500 to 5000 nM | O=S(=O)(Nc1cc(OC(F)F)c(Cl)cc1F)c1c[nH]cc1Cc1ccccc1 [Cpd 426, 4-benzyl-N-[4-chloro-5-(difluoromethoxy)-2-fluorophenyl]-1H-pyrrole-3-sulfonamide] |
| 500 to 5000 nM | COc1nc(Cl)c(F)cc1NS(=O)(=O)c1c[nH]cc1Cc1ccccc1 [Cpd 427, 4-benzyl-N-(6-chloro-5-fluoro-2-methoxypyridin-3-yl)-1H-pyrrole-3-sulfonamide] |
| 500 to 5000 nM | COc1nc(Cl)c(F)cc1NS(=O)(=O)c1c[nH]cc1-c1cccc(F)c1 [Cpd 428, N-(6-chloro-5-fluoro-2-methoxypyridin-3-yl)-4-(3-fluorophenyl)-1H-pyrrole-3-sulfonamide] |
| 500 to 5000 nM | COc1cc(OC(F)F)cnc1NS(=O)(=O)c1c[nH]c(-c2ccccc2)c1 [Cpd 429, N-[5-(difluoromethoxy)-3-methoxypyridin-2-yl]-5-phenyl-1H-pyrrole-3-sulfonamide] |
| < 500 nM | O=S(=O)(Nc1cc(F)c(C(F)(F)F)cc1F)c1c[nH]c(C2CCC2)c1 [Cpd 430, 5-cyclobutyl-N-(2,5-difluoro-4-(trifluoromethyl)phenyl)-1H-pyrrole-3-sulfonamide] |
| 5000 to 50000 nM | COc1nc(Br)cnc1NS(=O)(=O)c1c[nH]cc1Cc1ccccc1 [Cpd 431, 4-benzyl-N-(5-bromo-3-methoxypyrazin-2-yl)-1H-pyrrole-3-sulfonamide] |
| 500 to 5000 nM | O=S(=O)(Nc1ncc(OCC(F)F)cc1F)c1c[nH]cc1Cc1ccccc1 [Cpd 432, 4-benzyl-N-[5-(2,2-difluoroethoxy)-3-fluoropyridin-2-yl]-1H-pyrrole-3-sulfonamide] |
| 5000 to 50000 nM | COc1cc(OC(F)F)cnc1NS(=O)(=O)c1c[nH]cc1Cc1ccccc1 [Cpd 433, 4-benzyl-N-[5-(difluoromethoxy)-3-methoxypyridin-2-yl]-1H-pyrrole-3-sulfonamide] |
| 500 to 5000 nM | O=S(=O)(Nc1ncc(OCC(F)F)cc1F)c1c[nH]c(-c2ccccc2)c1 [Cpd 434, N-[5-(2,2-difluoroethoxy)-3-fluoropyridin-2-yl]-5-phenyl-1H-pyrrole-3-sulfonamide] |
| 500 to 5000 nM | COc1nc(Br)cnc1NS(=O)(=O)c1c[nH]c(-c2ccccc2)c1 [Cpd 435, N-(5-bromo-3-methoxypyrazin-2-yl)-5-phenyl-1H-pyrrole-3-sulfonamide] |
| < 500 nM | COc1nc(OCC(F)F)c(F)cc1NS(=O)(=O)c1c[nH]c(-c2ccccc2)c1 [Cpd 436, N-[6-(2,2-difluoroethoxy)-5-fluoro-2-methoxypyridin-3-yl]-5-phenyl-1H-pyrrole-3-sulfonamide] |
| 5000 to 50000 nM | N#Cc1ccc(NS(=O)(=O)c2c[nH]cc2-c2cccnc2)c(F)c1 [Cpd 437, N-(4-cyano-2-fluorophenyl)-4-(pyridin-3-yl)-1H-pyrrole-3-sulfonamide] |

| IC50 | SMILES |
| --- | --- |
| 5000 to 50000 nM | O=S(=O)(Nc1ncc(OCC(F)F)cc1F)c1c[nH]cc1-c1cccc(F)c1 [Cpd 438, N-[5-(2,2-difluoroethoxy)-3-fluoropyridin-2-yl]-4-(3-fluorophenyl)-1H-pyrrole-3-sulfonamide] |
| < 500 nM | N#Cc1cc(F)c(NS(=O)(=O)c2c[nH]cc2Cc2ccccc2)cc1Cl [Cpd 439, 4-benzyl-N-(5-chloro-4-cyano-2-fluorophenyl)-1H-pyrrole-3-sulfonamide] |
| < 500 nM | Cc1cc(NS(=O)(=O)c2c[nH]cc2Cc2ccccc2)c(F)cc1C#N [Cpd 440, 4-benzyl-N-(4-cyano-2-fluoro-5-methylphenyl)-1H-pyrrole-3-sulfonamide] |
| < 500 nM | N#Cc1ccc(NS(=O)(=O)c2c[nH]c(-c3ccoc3)c2)c(F)c1 [Cpd 441, N-(4-cyano-2-fluorophenyl)-5-(furan-3-yl)-1H-pyrrole-3-sulfonamide] |
| < 500 nM | N#Cc1ccc(NS(=O)(=O)c2c[nH]c(-c3cccc4ccoc34)c2)c(F)c1 [Cpd 442, 5-(1-benzofuran-7-yl)-N-(4-cyano-2-fluorophenyl)-1H-pyrrole-3-sulfonamide] |
| < 500 nM | N#Cc1ccc(NS(=O)(=O)c2c[nH]c(-c3cccc4c3OCC4)c2)c(F)c1 [Cpd 443, N-(4-cyano-2-fluorophenyl)-5-(2,3-dihydro-1-benzofuran-7-yl)-1H-pyrrole-3-sulfonamide] |
| 500 to 5000 nM | COc1nc(OCC(F)F)c(F)cc1NS(=O)(=O)c1c[nH]cc1Cc1ccccc1 [Cpd 444, 4-benzyl-N-[6-(2,2-difluoroethoxy)-5-fluoro-2-methoxypyridin-3-yl]-1H-pyrrole-3-sulfonamide] |
| < 500 nM | N#Cc1ccc(NS(=O)(=O)c2c[nH]c(-c3ccco3)c2)c(F)c1 [Cpd 445, N-(4-cyano-2-fluorophenyl)-5-(furan-2-yl)-1H-pyrrole-3-sulfonamide] |
| 500 to 5000 nM | O=S(=O)(Nc1cc(F)c(Br)cc1F)c1c[nH]c(-c2ccc(F)cc2)c1 [Cpd 446, N-(4-bromo-2,5-difluorophenyl)-5-(4-fluorophenyl)-1H-pyrrole-3-sulfonamide] |
| 500 to 5000 nM | O=S(=O)(Nc1cc(F)c(Br)cc1F)c1c[nH]c(-c2ccc(F)cc2F)c1 [Cpd 447, N-(4-bromo-2,5-difluorophenyl)-5-(2,4-difluorophenyl)-1H-pyrrole-3-sulfonamide] |
| < 500 nM | N#CCOc1cc(F)c(NS(=O)(=O)c2c[nH]c(-c3ccccc3F)c2)cc1F [Cpd 448, N-[4-(cyanomethoxy)-2,5-difluorophenyl]-5-(2-fluorophenyl)-1H-pyrrole-3-sulfonamide] |
| < 500 nM | N#CCOc1cc(F)c(NS(=O)(=O)c2c[nH]c(-c3cc(Cl)ccc3F)c2)cc1F [Cpd 449, 5-(5-chloro-2-fluorophenyl)-N-[4-(cyanomethoxy)-2,5-difluorophenyl]-1H-pyrrole-3-sulfonamide] |
| 500 to 5000 nM | N#CCOc1cc(F)c(NS(=O)(=O)c2c[nH]c(-c3ccc(F)cc3)c2)cc1F [Cpd 450, N-[4-(cyanomethoxy)-2,5-difluorophenyl]-5-(4-fluorophenyl)-1H-pyrrole-3-sulfonamide] |
| 500 to 5000 nM | N#CCOc1cc(F)c(NS(=O)(=O)c2c[nH]c(-c3ccc(F)cc3F)c2)cc1F [Cpd 451, N-[4-(cyanomethoxy)-2,5-difluorophenyl]-5-(2,4-difluorophenyl)-1H-pyrrole-3-sulfonamide] |
| < 500 nM | O=S(=O)(Nc1cc(F)c(OC(F)F)cc1F)c1c[nH]cc1Cc1cccs1 [Cpd 452, N-[4-(difluoromethoxy)-2,5-difluorophenyl]-4-(thiophen-2-ylmethyl)-1H-pyrrole-3-sulfonamide] |
| < 500 nM | O=S(=O)(Nc1cc(F)c(OC(F)F)cc1F)c1c[nH]cc1Cc1cccc(F)c1 [Cpd 453, N-[4-(difluoromethoxy)-2,5-difluorophenyl]-4-[(3-fluorophenyl)methyl]-1H-pyrrole-3-sulfonamide] |
| 500 to 5000 nM | O=S(=O)(Nc1cc(F)c(OC(F)F)cc1F)c1c[nH]cc1Cc1cccc(Cl)c1 [Cpd 454, 4-[(3-chlorophenyl)methyl]-N-[4-(difluoromethoxy)-2,5-difluorophenyl]-1H-pyrrole-3-sulfonamide] |
| < 500 nM | O=S(=O)(Nc1cc(Cl)c(OC(F)F)cc1F)c1c[nH]c(-c2ccccc2)c1 [Cpd 455, N-[5-chloro-4-(difluoromethoxy)-2-fluorophenyl]-5-phenyl-1H-pyrrole-3-sulfonamide] |
| < 500 nM | N#Cc1cc(F)c(NS(=O)(=O)c2c[nH]c(-c3cc(Cl)c(F)cc3F)c2)cc1F [Cpd 456, 5-(5-chloro-2,4-difluorophenyl)-N-(4-cyano-2,5-difluorophenyl)-1H-pyrrole-3-sulfonamide] |
| 500 to 5000 nM | Cc1cc(-c2cc(S(=O)(=O)Nc3cc(F)c(C(F)(F)F)cc3F)c[nH]2)cs1 [Cpd 457, N-[2,5-difluoro-4-(trifluoromethyl)phenyl]-5-(5-methylthiophen-3-yl)-1H-pyrrole-3-sulfonamide] |
